Measured values taken from US7368582B2, “Amidomethyl-substituted 2-(4-sulfonylamino)-3-hydroxy-3,4-dihydro-2H-chromen-6-yl compounds, a process and intermediates for their production, and pharmaceutical compositions containing them” (Solvay Pharmaceuticals GmbH, priority 2003, dated 2008).

Experiments:
[1] = biological target: T1, Kv 1.5-potassium channel (Homo sapiens, UniProt P22460); test: In-vitro Kv 1.5-potassium channel-blocking effect (Rb+ outflow from CHO cells, atomic absorption spectroscopy); format: cell-based; conditions: CHO cells stably expressing Kv 1.5, read-out: IC50 (Kv1.5-potassium channel-blocking effect, concentration of half-maximum inhibition)
T1 construct: expressed in transfected cells
Protocol: 1. In-Vitro Investigation of the Kv 1.5-Potassium Channel-Blocking Effect of the Substances
In this test model, a cell line of egg cells of the Chinese hamster (=“Chinese hamster oocytes”, “CHO”) is used which originates from a single cell and stably expresses the Kv 1.5-channel. By incubation overnight in a nutrient medium containing RbCl or a “loading buffer” (all values in mM: RbCl 5, NaCl 140, CaCl2 2, MgSO4 1, HEPES buffer 10, glucose 5) the aforementioned oocytes are loaded with Rb^+ under the influence of Na^+/K^+-ATPase. Thereafter, a portion of the oocytes is incubated as a reference standard in the absence of an inhibitor, while another portion of the oocytes is incubated in the presence of the respective inhibitory test substance of Formula I. Then the oocytes are depolarized by increasing the extracellular potassium-ion concentration, which causes the Kv 1.5-potassium channels of the oocytes to open. In the absence of an inhibitor, the Rb^+ ions flow through the Kv 1.5-potassium channels into the liquid surrounding them. In the presence of an inhibitory test substance of Formula I, on the other hand, the Rb^+ ions remain locked within the oocytes. The extent of the Kv 1.5-potassium channel-blocking effect of the test substances of Formula I is determined by measuring the Rb^+ ion concentration in the liquid surrounding them by means of atomic absorption spectroscopy against a reference standard.
Chinese hamster oocytes (see above) were cultivated in a known, RbCl-containing nutrient medium for CHO-cells and placed in the sample wells of a 96-sample capacity sample plate (“96 well plate”). The oocytes were allowed to grow overnight in order to obtain monolayers of the oocytes. Then the nutrient medium was pipetted off, and each sample well was washed three times with 100 μl portions of a preincubation buffer of low potassium-ion concentration (all values in mM: KCl 5, NaCl 140, CaCl2 2, MgSO4 1, HEPES buffer 10, glucose 5). Then 50 μl of a solution of the respective test substance (stock solution in DMSO, dilution with preincubation buffer, final concentration in the test batch 10 μM) or of the solvent (as negative controls) was added to each sample well and incubated for 10 min. in each case at room temperature. Then 50 μl of a stimulation buffer with elevated potassium-ion concentration (KCl 145 mM, NaCl 0 mM, otherwise as preincubation buffer) was added to each sample well and the samples were then incubated for a further 10 min. at room temperature. In each case, 80 μl of the liquid surrounding the oocytes from each sample well was then transferred separately to the sample wells of an analysis sample plate, and the Rb^+ ion concentration in the liquids was determined by atomic absorption spectroscopy. The test substances were each double-tested. The signal section which represented the Kv 1.5 component of the Rb^+ outflow was defined by using as positive control the known potassium channel blocker 4-AP in a high concentration (100×IC50 for the Kv 1.5 channel). This made it possible to determine which portion of the Rb^+ outflow was dependent on the influence of the 4-AP and therefore is to be assigned to the Kv 1.5 channel. For the substances which in the concentration of 10 μM used led to a reduction in the Rb^+ outflow of at least 50%, additional tests were performed with lower concentrations of the test substances in order to be able to determine the half-maximum effective concentration. In each case the concentration of half-maximum inhibition of the test substances of Formula I (IC50) was given as characteristic variable.

[2] = biological target: T2, Kv 1.3-potassium channel (Homo sapiens, UniProt P22001); test: In-vitro Kv 1.3-potassium channel-blocking effect (membrane potential-sensitive fluorescent dye in transfected CHO cells); format: cell-based; conditions: 10 μM test substance; CHO cells transfected with Kv 1.3; relative to reference margatoxin
T2 construct: expressed in transfected cells; host or cells: CHO cells, stably transfected with the Kv 1.3 plasmid using DMRIE-C
From the text: 2. In-Vitro Investigation of the Kv 1.3-Potassium Channel-Blocking Effect of the Substances
In this test model, known oocytes of the Chinese hamster (═CHO) are used which are stably transfected with the Kv 1.3-potassium channel. The blockade of the cell-inherent Kv 1.3-potassium channel activity in the transfected cells is accompanied by a positive shift in the membrane potential from approx. −40 mV to −30 mV, whereas in the wild-type CHO cells investigated in parallel no significant shift in the membrane potential is triggered. A change in the membrane potential is thus connected to the reduction in the Kv 1.3-potassium channel activity. By blocking the Kv 1.3-potassium channels e.g. with substances of Formula I and the resulting change in the membrane potential, an accumulation of a membrane potential-sensitive fluorescent dye in intracellular compartments of the oocytes and ultimately increasing fluorescence occurs. The change in the membrane potential of the oocytes is therefore measured indirectly via the increase in fluorescence of the membrane potential-senstive dyes.
The cells were transfected with the Kv 1.3 plasmid in known manner with a commercially obtainable transfection reagent (DMRIE-C from Gibco BRL, Germany). The successful transfection was verified by immunofluorescence and by “patch-clamp” investigations of the potassium ion current. The fluorescence measurements were performed on a Tecan Safire fluorescence reader from Tecan, Germany. In each case, the increase in the fluorescent intensity caused by the blockade of the Kv 1.3-potassium channels in the oocytes with substances of Formula I in a concentration of 10 μM was determined as characteristic variable. The increase in the fluorescent intensity was given in each case in percent (%) compared with an increase in the fluorescent intensity caused by the reference substance margatoxin. Margatoxin is known as a selective Kv 1.3-potassium channel blocker (see e.g. M. Garcia-Calvo et al., J. Biol. Chem. 268 (1993) 18866-18874).

[3] = tested on: hearts of anaesthetised cats; test: Atrial and ventricular fibrillation threshold in anaesthetised cats in vivo; parameters: species or system cat; conditions: anaesthetized cats, dose 30 μmol/kg i.v.; for AFT (increase in the atrial fibrillation threshold) / VFT (increase in the ventricular fibrillation threshold): percent of value before administration
From the text: 5. Investigation of the Functional Effectiveness of the Substances on the Hearts of Anaesthetised Cats in Vivo
In the test model shown below, it was shown that the substances according to the invention at most have a marked atrial-selective effect on the heart. After administration of the substances according to the invention, a significant increase in the atrial fibrillation threshold—i.e. the current intensity at which atrial fibrillation occurs—was observed. At the same time, on the other hand, the ventricular fibrillation threshold is influenced only minimally.
Living cats were anaesthetised with chloralose/urethane (50/300 mg/kg i.v.) and were ventilated with ambient air. Then, following thoracotomy, stimulating electrodes were attached to the right atrium and the ventricle. The atrial and ventricular fibrillation threshold was determined in known manner by administration of rectangular pulses of increasing current intensity until atrial or ventricular fibrillation occurred (for performance see in detail: Br. J. Pharmac. 17 (1961) 167; Hdb. exp. Pharmacol. XVI/3 (1975) 131; Pharmacol. Res. 25 Suppl. 2 (1992) 156). The test substances of Formula I were dissolved in propylene glycol (80%) and administered intravenously in increasing doses (5-30 μmol/kg). Atrial and ventricular fibrillation thresholds were then determined at 5-minute intervals in known manner after the addition of the respective dose. The increase in the respective fibrillation threshold due to the substances investigated was expressed in percent of the value before administration of substance, i.e. a doubling of the fibrillation threshold corresponds to an increase of 100%.

T1 sequence (P22460 whole entry): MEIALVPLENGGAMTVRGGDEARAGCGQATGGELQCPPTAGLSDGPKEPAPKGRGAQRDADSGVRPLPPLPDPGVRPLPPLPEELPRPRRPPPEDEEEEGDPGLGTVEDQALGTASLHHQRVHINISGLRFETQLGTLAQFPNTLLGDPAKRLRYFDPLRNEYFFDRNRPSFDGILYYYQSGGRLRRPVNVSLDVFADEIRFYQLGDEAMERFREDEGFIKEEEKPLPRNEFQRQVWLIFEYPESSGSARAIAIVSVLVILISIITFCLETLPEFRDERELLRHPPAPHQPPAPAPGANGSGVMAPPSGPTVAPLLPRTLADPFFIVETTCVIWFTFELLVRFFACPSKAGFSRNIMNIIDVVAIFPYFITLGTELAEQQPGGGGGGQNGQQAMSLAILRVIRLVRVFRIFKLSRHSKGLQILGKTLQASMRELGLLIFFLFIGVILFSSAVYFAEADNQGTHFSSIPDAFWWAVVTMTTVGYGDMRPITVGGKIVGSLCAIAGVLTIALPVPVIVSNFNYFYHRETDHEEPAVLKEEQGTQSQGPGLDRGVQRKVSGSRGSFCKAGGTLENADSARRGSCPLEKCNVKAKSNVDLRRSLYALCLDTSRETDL
T2 sequence (P22001 whole entry): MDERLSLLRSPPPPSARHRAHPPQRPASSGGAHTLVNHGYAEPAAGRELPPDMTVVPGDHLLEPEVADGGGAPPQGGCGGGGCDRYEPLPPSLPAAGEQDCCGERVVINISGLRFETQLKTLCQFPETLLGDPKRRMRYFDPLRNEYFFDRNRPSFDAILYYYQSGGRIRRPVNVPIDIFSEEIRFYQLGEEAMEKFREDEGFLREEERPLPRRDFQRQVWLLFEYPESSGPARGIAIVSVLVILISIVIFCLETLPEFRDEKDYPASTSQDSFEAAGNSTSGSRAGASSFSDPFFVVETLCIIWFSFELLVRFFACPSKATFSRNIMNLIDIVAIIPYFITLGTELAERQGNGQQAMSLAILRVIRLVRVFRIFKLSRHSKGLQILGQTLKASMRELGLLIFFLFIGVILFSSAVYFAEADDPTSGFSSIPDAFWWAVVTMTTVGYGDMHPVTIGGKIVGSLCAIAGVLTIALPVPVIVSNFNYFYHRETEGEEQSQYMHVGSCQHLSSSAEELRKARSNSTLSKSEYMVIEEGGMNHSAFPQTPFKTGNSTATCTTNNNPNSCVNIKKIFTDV

Row | SMILES | IC50 [1] | Increase in the fluorescent intensity (% margatoxin) [2] | Selectivity factor (AFT:VFT) [3] | AFT (increase in the atrial fibrillation threshold) [3] | VFT (increase in the ventricular fibrillation threshold) [3]
1 | CCc1ccc(S(=O)(=O)N[C@@H]2c3cc(CC(=O)N[C@H]4CCCc5ccccc54)ccc3OC(C)(C)[C@H]2O)cc1 [Example 9] | 2.9 µM | 107 % margatoxin | 7 | 213% | 29%
2 | CCc1ccc(S(=O)(=O)NC2c3cc(CC(=O)N4CCN(c5ccccc5)CC4)ccc3OC(C)(C)C2O)cc1 (stereo not drawn) [Example 16] | 6.3 µM |  |  |  | 
3 | CCc1ccc(S(=O)(=O)N(CC(C)(C)C)[C@H]2c3cc(CC(=O)NCc4ccccc4)ccc3OC(C)(C)[C@@H]2O)cc1 [Example 8] | 0.5 µM |  |  |  | 
4 | CCc1ccc(S(=O)(=O)N(CC(C)(C)C)[C@@H]2c3cc(CC(=O)NCc4ccccc4)ccc3OC(C)(C)[C@H]2O)cc1 [Example 7] | 1.5 µM |  |  |  | 
5 | CCc1ccc(S(=O)(=O)N(CC(C)(C)C)C2c3cc(CC(=O)NCCc4ccccc4)ccc3OC(C)(C)C2O)cc1 (stereo not drawn) [Example 10] | 1.6 µM | 82 % margatoxin | 13 | 241% | 19%
6 | CCc1ccc(S(=O)(=O)N[C@@H]2c3cc(CC(=O)N[C@@H]4CCCc5ccccc54)ccc3OC(C)(C)[C@H]2O)cc1 [Example 2, 2-((3S,4R)-4-{[(4-ethylphenyl)sulfonyl]amino}-3-hydroxy-2,2-dimethyl-3,4-dihydro-2H-chromen-6-yl)-N-[(1R)-1,2,3,4-tetrahydronaphth-1-yl]acetamide] | 2 µM | 72 % margatoxin | 17 | 261% | 15%
7 | CC1(C)Oc2ccc(CC(=O)NC3CCCc4ccccc43)cc2C(NS(=O)(=O)c2cccc(F)c2)C1O (mixture of isomers) [Example 13] | 6.5 µM | 53 % margatoxin |  |  | 
8 | CCc1ccc(S(=O)(=O)N(CC(C)(C)C)C2c3cc(CC(=O)NCc4ccccc4)ccc3OC(C)(C)C2O)cc1 (stereo not drawn) [Example 4, N-benzyl-2-{4-[[(4-ethylphenyl)sulfonyl](neopentyl)amino]-3-hydroxy-2,2-dimethyl-3,4-dihydro-2H-chromen-6-yl}acetamide] | 1.6 µM |  | 12 | 226% | 19%
